Biological target: T1, CTP synthase 1 (Homo sapiens, UniProt P17812)
T1 sequence (P17812 whole entry): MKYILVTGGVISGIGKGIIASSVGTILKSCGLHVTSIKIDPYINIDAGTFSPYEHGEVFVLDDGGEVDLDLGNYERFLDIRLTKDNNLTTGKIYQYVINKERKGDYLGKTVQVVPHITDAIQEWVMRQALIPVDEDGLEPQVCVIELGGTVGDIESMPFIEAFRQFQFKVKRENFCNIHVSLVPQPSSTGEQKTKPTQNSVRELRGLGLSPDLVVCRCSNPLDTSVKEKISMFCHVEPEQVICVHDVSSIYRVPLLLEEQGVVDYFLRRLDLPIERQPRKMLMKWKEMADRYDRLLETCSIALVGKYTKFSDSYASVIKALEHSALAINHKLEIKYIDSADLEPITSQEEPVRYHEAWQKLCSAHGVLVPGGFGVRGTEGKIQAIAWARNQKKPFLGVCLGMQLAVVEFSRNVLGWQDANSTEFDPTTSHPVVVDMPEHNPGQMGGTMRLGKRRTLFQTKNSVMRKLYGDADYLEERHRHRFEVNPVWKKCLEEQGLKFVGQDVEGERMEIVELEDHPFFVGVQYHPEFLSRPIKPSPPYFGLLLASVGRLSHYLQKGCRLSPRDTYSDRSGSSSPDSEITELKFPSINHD
Test: hCTPS1 Biochemical Assay
Protocol: Purified human CTPS1 protein was prepared in 1× assay buffer to the final working protein concentration required for the reaction. A 2.5 uL volume per well of human CTPS1 protein was mixed with 0.1 uL per well of test compound dissolved in DMSO and pre-incubated at 25 degrees C. for 10 minutes. 2.5 uL per well of the reaction precursors ATP (UltraPure ATP from ADP-Glo™ kit) and UTP were then added and pre-incubated for an additional 10 minutes at 25 degrees C. Finally, the reaction was initiated by the addition of 5 uL of the reaction precursors L-glutamine and GTP. The final concentration of all reaction components in the assay: ATP (120 uM), UTP (160 uM), GTP (60 uM), L-Glutamine (100 uM), DMSO (1%), hCTPS1 (25 nM). This mixture was incubated for an appropriate amount of time within the determined linear phase of the reaction at 25 degrees C. under sealed plate conditions with constant agitation at 500 revolutions per minute (rpm). ADP-Glo™ reagent was added for 60 minutes (10 uL per well) and subsequently ADP-Glo™ development reagent was added for 60 minutes (20 uL per well) prior to signal detection in a microplate reader (Envision Multilabel Reader, Perkin Elmer). Following each reagent addition over the course of the assay, assay plates were pulse centrifuged for 1 minute at 1000 rpm.

`CCc1c[nH]c2ncc(-c3ccc(C(=O)NCc4cc(NS(=O)(=O)C5CC5)ccn4)cc3)cc12` [US12331046, Compound I-38] was tested, and the IC50 was under 100 nM.
`CCOc1cncc(-c2cnc(C(=O)NCc3cccc(NS(=O)(=O)C(F)F)c3)s2)n1` [US12331046, Compound I-61] showed an IC50 of under 100 nM.
In the case of `CCOc1cncc(-c2ccc(C(=O)NC(C#N)c3cc(NS(=O)(=O)C4CC4)ccn3)cc2)n1` (stereo not given) [US12331046, Compound I-64], the IC50 is reported as under 100 nM.
`CCOc1cncc(-c2nnc(C(=O)N[C@H](CC)c3cc(NS(=O)(=O)C4CC4)ccn3)s2)n1` [US12331046, Compound I-240] gave an IC50 of under 100 nM.
With `CCOc1cncc(-c2cnc(C(=O)NCc3cc(F)cc(NS(=O)(=O)C4CC4)c3)s2)n1` [US12331046, Compound I-256] the IC50 was under 100 nM.

Reference: BindingDB's records for patent US12331046 (Nimbus Clotho, 2025)
